Laboratory results from patent publication US9745305B2, “Modulators of methyl modifying enzymes, compositions and uses thereof” (Constellation Pharmaceuticals, Inc., priority 2013, dated 2017).

Tested on: H3K27me3 mark in Hela cells expressing wild type EZH2
Experiment: H3K27me3 MSD Hela Assay
Type: cell-based
Conditions: Homo sapiens, HeLa, 96 h, read-out: H3K27me3_MSD_HeLa (EC50)
Procedure: H3K27me3 MSD Hela Assay. Trypsinized HeLa cells were counted and diluted in 10% DMEM (Life Technologies, Cat. #10569) to 5000 cells/75 μL. Seventy-five μL of cells were place in each well of a 96-well flat-bottomed plate and incubated at 37° C. for 4 hours. Twenty-five μL of test compound (at various concentrations) was added to the cells and incubation continued at 37° C. for 96 hours. Media was then removed and the cells rinsed once with ice cold PBS. Forty μL of ice-cold MSD Buffer AT (10 mM HEPES, pH 7.9, 5 mM MgCl2, 0.25M sucrose, Benzonase (1:10000), 1% Triton X-100 supplemented with fresh 1× Protease Inhibitor cocktail and 1 mM 4-(2-Aminoethyl)benzenesulfonyl fluoride hydrochloride (AEBSF)) was added to each well and the plates placed on ice for 30 minutes. Ten μL of 5M NaCl was then added to each well and incubation on ice continued for another 15 minutes. The material in each well was suspended pipetting up and down and then transferred to a new 96 well plate. The emptied wells were rinsed with 150 uL ice-cold 20 mM Tris pH 7.5, 1 mM EDTA, 1 mM EGTA, supplemented with fresh 1× Protease Inhibitor cocktail and 1 mM AEBSF (“NO salt NO detergent buffer) and transferred to the respective wells in the new plate. Three hundred μL of NO Salt NO detergent buffer was then added to each well of lysates and the plates frozen at −80° C.
On the same day, an appropriate number of MSD standard bind 96-well plates were coated with 30 μL/well of total H3 capture antibody (Millipore, Cat # MAB3422) at 1 μg/mL concentration in PBS. The antibody solution was evenly distributed first by tapping gently on the sides of the plates and then by shaking the plates for a few minutes at 1000 rpm. Antibody coated plates were stored at 4° C. overnight.
The next day the lysates are thawed to RT. The antibody coated MSD plates are washed 3× with TBS-T (Tris-buffered saline (Fisher Scientific, Cat #BP2471-1)+0.2% Tween-20). One-hundred fifty μL of 5% Blocker A in TBS-T is added to each well. The wells are covered and shaken on a shaker at RT for one hour. The Blocker A step is repeated a second time. After removing the blocker, 25 μL of cell lysate is transferred into each antibody coated well. The plates are shaken for 2 hours at RT, the lysate removed and the plates again washed with Blocker A in TBS-T. Twenty-five μL of appropriate freshly prepared antibody mix (including both primary and secondary antibodies) is added to each well and the plates shaken for 1 hour at RT.
Both H3 antibodies were obtained from Cell Signalling (Cat #s 4499 and 9733). The goat anti-rabbit antibody was obtained from Meso-Scale Discovery (Cat #R32AB-1).
The antibody mix was then removed and the wells washed with Blocker A. One hundred-fifty μL of freshly prepared 1×MSD Read Buffer (Meso-Scale Discovery; Cat #R927C-2) was then added to each well and the plates read on a MSD Sector 2400 Plate Reader.
Data was analyzed using Assay Assistant (Constellation Pharmaceuticals In-house product) and Activity Base (IDBS Ltd, Surrey, UK) template. Data files were imported to Assay Assistant and assay conditions were specified. A unique Analysis ID was created and the data files exported to Activity Base. An analysis template was created on Activity Base to measure dose-dependent inhibition of H3K27me3 mark and cell viability respectively. Readout of DMSO wells were used to normalize the data. Resulting curves were fitted using Activity base software Model 205 (IDBS Ltd, Surrey, UK). The data was checked for quality, validated and integrated in excel format using SARview (IDBS Ltd, Surrey, UK).

EC50, < 0.4 µM:
COc1cc(C)[nH]c(=O)c1CNC(=O)c1c(C)c(C(C)c2ccccc2)n2ncccc12 (racemic) [Compound 101, (±)-N-((4-methoxy-6-methyl-2-oxo-1,2-dihydropyridin-3-yl)methyl)-6-methyl-7-(1-phenylethyl)pyrrolo[1,2-b]pyridazine-5-carboxamide]
COc1cc(C)[nH]c(=O)c1CNC(=O)c1c(C)c(C(C)C2CCOCC2)n2ncccc12 (racemic) [Compound 116, (±)-N-((4-methoxy-6-methyl-2-oxo-1,2-dihydropyridin-3-yl)methyl)-6-methyl-7-(1-(tetrahydro-2H-pyran-4-yl)ethyl)pyrrolo[1,2-b]pyridazine-5-carboxamide]
COc1cc(C)[nH]c(=O)c1CNC(=O)c1c(C)c(C(C)c2ccccc2)n2ncccc12 (single isomer, unassigned) [Compound 105, (R or S)-N-((4-methoxy-6-methyl-2-oxo-1,2-dihydropyridin-3-yl)methyl)-6-methyl-7-(1-phenylethyl)pyrrolo[1,2-b]pyridazine-5-carboxamide]
